US12377100B2 (GILEAD SCIENCES, INC., priority 2015, dated 2025)

Experiments:
Assay type in all cases: cell-based
Conditions in all cases: Homo sapiens, PBMC, 24 h, human PBMCs, 24 hours incubation
[1] = system: IFNα; assay: PBMC cytokine profiling assay, IFNα induction
Procedure: (§1) Certain compounds disclosed herein we tested according to the procedure described below. Additionally, certain reference compounds were prepared and tested along with the compounds of the present disclosure.
(§2) Compounds were dissolved and stored in DMSO (Sigma-Aldrich, St. Louis, MO) at 10 mM concentration.
(§3) Cryopreserved human PBMCs isolated from healthy donors were purchased from StemCell Technologies (Vancouver, Canada). Cell culture medium used was RPMI with L-Glutamine (Mediatech, Manassas, VA) supplemented with 10% fetal bovine serum (Hyclone, GE Healthcare, Logan, UT) and Penicillin-Streptomycin (Mediatech). Human TNFα, IL12p40, and IFNα2a 384-well Assay capture plates, standards, buffers and processing reagents were obtained from MesoScale Discovery Technologies (MSD; Rockville, MD).
(§4) Cryopreserved human PBMCs (1×10e8 cells/ml) were thawed at 37° C. and resuspended in 25 mL warm cell culture medium. The cells were pelleted at 200×g (Beckman Avanti J-E) for 5 min and resuspended in 20 mL of fresh culture media. Cells were counted using a Cellometer (Nexcelcom Bioscience), adjusted to 2×10e6 cells, and incubated for 2 hours in an incubator set at 37° C., 5% CO2 to recover from cryopreservation. Compounds were serially diluted in DMSO at half-log steps to generate a 10-point dose range. Using a Bravo pipette equipped with a 384 well head (Agilent), 0.4 μL of compound was transferred to each well of a 384 well black, clear bottom plate (Greiner Bio-One, Germany) containing 30 μL of cell culture medium. Recovered PBMCs were then dispensed into the assay plate at 50 μL per well (100k cells/well) using the MicroFlow multichannel dispenser (Biotek). Final DMSO concentration was 0.5%. DMSO was used as the negative control. The plates were incubated for 24 hours at 37° C. PBMCs in the assay plate were pelleted by centrifugation (Beckman Avanti J-E) at 200×g for 5 min.
(§5) Using a Biomek FX 384 well pipetting station (Beckman), conditioned culture medium (CCM) from the assay plate was transferred to MSD capture plates customized for each cytokine. For IFNα and IL12-p40 detection, 25 μL and 20 μL of CCM were added directly to each capture plate, respectively. For TNFα detection, CCM was diluted 1:9 in fresh culture medium, and 20 μL of diluted CCM was used. Serially diluted calibration standards for each cytokine were used to generate standard curves and establish assay linearity. The plates were sealed and incubated overnight at 4° C. in a plate shaker (Titer Plate) set at 200 rpm. On the following day, antibodies specific for each cytokine were diluted 1:50 in MSD Diluent 100 antibody dilution buffer. Diluted antibodies were added to corresponding capture plates at 10 μL/well, and incubated at RT for 1-2 hrs in the shaker. The plates were washed with PBST buffer (3×, 60 μl/well) using a Biotek Multiflow plate washer. MSD Read Buffer diluted to 2× in deionized water and 35 μL/well was added via Biomek FX instrument. The plates were read immediately in a MSD6000 reader. Data were normalized to positive and negative controls in each assay plate. AC50 values represent compound concentrations at half-maximal effect based on normalized percent activation and calculated by non-linear regression using Pipeline Pilot software (Accelrys, San Diego, CA).

[2] = system: IL12p40; assay: PBMC cytokine profiling assay, IL12-p40 induction
Procedure: as §1, §2, §3, §4, §5

[3] = system: TNFα; assay: PBMC cytokine profiling assay, TNFα induction
Procedure: as §1, §2, §3, §4, §5

SMILES	AC50 [1] [µM]	AC50 [2] [µM]	AC50 [3] [µM]
CCCC[C@@H](Nc1nc(N)nc2cccnc12)C(O)C(F)F (single isomer, unassigned) [Example 90]	7.8	0.62	0.86
CCCC[C@@H](Nc1nc(N)nc2cccnc12)C(CF)NC(C)=O (stereo partly drawn) [Example 91, N-((3R)-3-((2-aminopyrido[3,2-d]pyrimidin-4-yl)amino)-1-fluoroheptan-2-yl)acetamide]	> 50	1.9	2
CCC[C@@H](CO)Nc1nc(N)nc2cc(OC)cnc12 [Example 42B, (S)-2-((2-amino-7-methoxypyrido[3,2-d]pyrimidin-4-yl)amino)pentan-1-ol]	3.6	0.9	1.1
CC(F)(F)CC[C@H](CO)Nc1nc(N)nc2cccnc12 [Example 78, (R)-2-((2-aminopyrido[3,2-d]pyrimidin-4-yl)amino)-5,5-difluorohexan-1-ol]	> 50	14.2	16
CCCC[C@H](CO)Nc1nc(N)nc2cc(CC)cnc12 [Example 71, (R)-2-((2-amino-7-ethylpyrido[3,2-d]pyrimidin-4-yl)amino)hexan-1-ol]	> 50	2.7	2.6
CCCCC(CC)(CO)Nc1nc(N)nc2cccnc12 (stereo not drawn) [Example 85, 2-((2-aminopyrido[3,2-d]pyrimidin-4-yl)amino)-2-ethylhexan-1-ol]	4	0.8	0.86
CCCC[C@H](CO)Nc1nc(N)nc2cc(F)c(F)cc12 [Example 46C, (R)-2-((2-amino-6,7-difluoroquinazolin-4-yl)amino)hexan-1-ol]	> 50	28.5	28.6
Nc1nc(NCC2CCCO2)c2ncccc2n1 (stereo not drawn) [Example 16, N^4-((tetrahydrofuran-2-yl)methyl)pyrido[3,2-d]pyrimidine-2,4-diamine]	> 50	> 50	> 50
CC[C@H](C)[C@@H](CO)Nc1nc(N)nc2cccnc12 [Example 9, (2S,3S)-2-((2-aminopyrido[3,2-d]pyrimidin-4-yl)amino)-3-methylpentan-1-ol]	7.2	1.1	1.9
CSCC[C@@H](CO)Nc1nc(N)nc2cccnc12 [Example 10, (S)-2-((2-aminopyrido[3,2-d]pyrimidin-4-yl)amino)-4-(methylthio)butan-1-ol]	> 50	23.8	29.2
CC(C)(O)CC[C@H](CO)Nc1nc(N)nc2cccnc12 [Example 110]	32.6	32.6	32.6
CCCC[C@@H](Nc1nc(N)nc2cccnc12)C(=O)NCCO [Example 54, (R)-2-((2-aminopyrido[3,2-d]pyrimidin-4-yl)amino)-N-(2-hydroxyethyl)hexanamide]	> 50	42.5	34
CCC[C@@H](CO)Nc1nc(N)nc2c(Cl)cc(C)nc12 [Example 6B, (S)-2-((2-amino-8-chloro-6-methylpyrido[3,2-d]pyrimidin-4-yl)amino)pentan-1-ol]	> 50	> 50	> 50
CCC[C@@H](CO)Nc1nc(N)nc2cc(F)cnc12 [Example 43C, (S)-2-((2-amino-7-fluoropyrido[3,2-d]pyrimidin-4-yl)amino)pentan-1-ol]	10.9	1	1.1
CCCC[C@](C)(CNS(C)(=O)=O)Nc1nc(N)nc2cccnc12 [Example 53, (R)—N-(2-((2-aminopyrido[3,2-d]pyrimidin-4-yl)amino)-2-methylhexyl)methanesulfonamide]	3.9	0.28	0.26
CCCCC[C@H](CO)Nc1nc(N)nc2cccnc12 [Example 75, (R)-2-((2-aminopyrido[3,2-d]pyrimidin-4-yl)amino)heptan-1-ol]	20.3	3.3	4
